Values after ≈ are worked out from the molar mass of the structure shown. Values joined by “and” are separate entries in the source; they are usually repeats but may differ in a detail not shown here. Equal entries are not always repeated. Where two headings read alike, the source gives them in different places. Blank lines part the entries; values can stand above or below the molecule they belong to.
What was measured:
[1] = system: C57BL/6 Diet Induced Obese (DIO) mice; experiment: Oral (P.O.) administration study in DIO mice: in vivo activity, body weights; parameters: species or system mouse; conditions: for change in vivo at 2 mg/kg: Mus musculus, po, difference of group mean, read-out: Body weight, %-Diff
Excerpt: The purpose of this study was to assess test articles in the Diet Induced Obese (DIO) mouse.
Male C57BL/6 Diet Induced Obese (DIO) mice were received from Taconic. Animals were acclimated to housing conditions for at least 1 week prior to vehicle acclimation dosing. Animals were acclimated to oral gavage dosing with vehicle once daily for Days 11 through 14 of the predose phase.
At initiation of dosing, animals were 21 to 22 weeks old, and their body weights ranged from 29.8 to 40.1 g.
Dose formulations were administered by oral gavage once daily for 10 days at a dose volume of 2 mL/kg. Doses were based on the most recently recorded scheduled body weight.
Body weights were recorded daily on Days 11 through 14 of the predose phase. Body weights were collected for all animals daily during the dosing phase prior to dosing.
Descriptive statistics (n, mean, standard error of the mean, standard deviation) were completed. Additionally, one-way analysis of variance followed by Dunnett's post-hoc test were performed on body weight (cumulative body weight change), glucose (glucose percent change), and food consumption (cumulative food consumption). Area under the curve (for body weight, cumulative body weight change, daily body weight change, and food consumption) was computed for treatment groups. An appropriate comparison test, such as one-way analysis of variance and Dunnett's, was performed on the group means for the area under the curve computations. Any additional statistical analysis and interpretation of the results were the responsibility of the sponsor.

[2] = physchem
Method: • Test concentration: 100 μM (1% of DMSO) • Test systems: PBS (pH 7.4) • Incubation condition: shaken (1000 rpm) for 1 h at room temperature • Sample size: Duplicates (n=2) • Bioanalytical method: LC-MS/MS

[3] = 2 mg/kg oral gavage once daily, dosing phase Day 1
[4] = 2 mg/kg oral gavage once daily, dosing phase Day 1, N 5
[5] = 2 mg/kg oral gavage once daily, dosing phase Day 2
[6] = 2 mg/kg oral gavage once daily, dosing phase Day 2, N 5
[7] = 2 mg/kg oral gavage once daily, dosing phase Day 3
[8] = 2 mg/kg oral gavage once daily, dosing phase Day 3, N 5
[9] = 2 mg/kg oral gavage once daily, dosing phase Day 4
[10] = 2 mg/kg oral gavage once daily, dosing phase Day 4, N 5
[11] = 2 mg/kg oral gavage once daily, dosing phase Day 5
[12] = 2 mg/kg oral gavage once daily, dosing phase Day 5, N 5
[13] = 2 mg/kg oral gavage once daily, dosing phase Day 6
[14] = 2 mg/kg oral gavage once daily, dosing phase Day 6, N 5
[15] = Day 7, DSNG phase, 2 mg/kg, male, N=5
[16] = Day 8, DSNG phase, 2 mg/kg, male, N=5
[17] = Day 9, DSNG phase, 2 mg/kg, male, N=5
[18] = Day 10, DSNG phase, 2 mg/kg, male, N=5
[19] = Day 11, DSNG phase, 2 mg/kg, male, N=5
[20] = 168 h, Day 7, DSNG phase, 2 mg/kg, male
[21] = 192 h, Day 8, DSNG phase, 2 mg/kg, male
[22] = 216 h, Day 9, DSNG phase, 2 mg/kg, male
[23] = 240 h, Day 10, DSNG phase, 2 mg/kg, male
[24] = 264 h, Day 11, DSNG phase, 2 mg/kg, male
[25] = pH 7.4, aqueous buffer, kinetic from dmso stock, Solubility (μM) Mean, Table 6-B; PBS (pH 7.4), test concentration 100 μM (1% of DMSO), shaken (1000 rpm) 1 h at room temperature, n = 2
[26] = pH 7.4, aqueous buffer, kinetic from dmso stock, Solubility (μM), Table 6-D; PBS (pH 7.4)
[27] = PBS (pH 7.4), pH 7.4, aqueous buffer, kinetic from dmso stock, Solubility (μM) Mean, Table 6-B, test concentration 100 μM (1% of DMSO), shaken (1000 rpm) 1 h at room temperature, n = 2
[28] = PBS (pH 7.4), pH 7.4, aqueous buffer, kinetic from dmso stock, Solubility (μM), Table 6-D

Structure (SMILES): CC1=C(O)C(=O)C=C2C1=CC=C1[C@@]2(C)CC[C@@]2(C)[C@@H]3C[C@](C)(C(=O)O)CC[C@]3(C)CC[C@]12C [ERX1000]
- Body weight %-Diff [1, 3]: 0%
- Body weight, Mean [1, 4]: 34.2 g
- Body weight %-Diff [1, 5]: −1%
- Body weight, Mean [1, 6]: 34.0 g
- Body weight %-Diff [1, 7]: −2%
- Body weight, Mean [1, 8]: 33.1 g
- Body weight %-Diff [1, 9]: −3%
- Body weight, Mean [1, 10]: 32.5 g
- Body weight %-Diff [1, 11]: −5%
- Body weight, Mean [1, 12]: 32.1 g
- Body weight %-Diff [1, 13]: −6%
- Body weight, Mean [1, 14]: 31.4 g
- Body weight, Mean [1, 15]: 30.6 g
- Body weight, Mean [1, 16]: 30.4 g
- Body weight, Mean [1, 17]: 30.3 g
- Body weight, Mean [1, 18]: 30.0 g
- Body weight, Mean [1, 19]: 29.1 g
- change in vivo at 2 mg/kg [1, 20]: -9%
- change in vivo at 2 mg/kg [1, 21]: -10%
- change in vivo at 2 mg/kg [1, 22]: -9%
- change in vivo at 2 mg/kg [1, 23]: -10%
- change in vivo at 2 mg/kg [1, 24]: -15%
- solubility [2, 25]: 3.89 µM (≈ 1.75 µg/mL)
- solubility [2, 26]: 3.89 µM (≈ 1.75 µg/mL)

Structure (SMILES): CC1=C(O)C(=O)C=C2C1=CC=C1[C@@]2(C)CC[C@@]2(C)[C@@H]3C[C@](C)(C(N)=O)CC[C@]3(C)CC[C@]12C [ERX1006]
- Body weight %-Diff [1, 3]: −1%
- Body weight, Mean [1, 4]: 34.1 g
- Body weight %-Diff [1, 5]: −2%
- Body weight, Mean [1, 6]: 33.9 g
- Body weight %-Diff [1, 7]: −1%
- Body weight, Mean [1, 8]: 33.4 g
- Body weight %-Diff [1, 9]: −2%
- Body weight, Mean [1, 10]: 32.8 g
- Body weight %-Diff [1, 11]: −4%
- Body weight, Mean [1, 12]: 32.6 g
- Body weight %-Diff [1, 13]: −3%
- Body weight, Mean [1, 14]: 32.5 g
- Body weight, Mean [1, 15]: 32.0 g
- Body weight, Mean [1, 16]: 31.7 g
- Body weight, Mean [1, 17]: 31.4 g
- Body weight, Mean [1, 18]: 31.2 g
- Body weight, Mean [1, 19]: 30.9 g
- change in vivo at 2 mg/kg [1, 20]: -4%
- change in vivo at 2 mg/kg [1, 21]: -6%
- change in vivo at 2 mg/kg [1, 22]: -5%
- change in vivo at 2 mg/kg [1, 23]: -7%
- change in vivo at 2 mg/kg [1, 24]: -9%
- Individual Body Weight, PRED 11 ([1]; individual male DIO mouse of the 2 mg/kg group, pre-dose phase day 11 (baseline)): 37.6 g and 34.5 g and 32.2 g and 35.2 g and 36.7 g
- Individual Body Weight, PRED 12 ([1]; individual male DIO mouse of the 2 mg/kg group, pre-dose phase day 12 (baseline)): 38.0 g and 35.2 g and 32.7 g and 34.8 g and 36.8 g
- Individual Body Weight, PRED 13 ([1]; individual male DIO mouse of the 2 mg/kg group, pre-dose phase day 13 (baseline)): 37.4 g and 35.4 g and 32.5 g and 34.1 g and 36.3 g
- Individual Body Weight, PRED 14 ([1]; individual male DIO mouse of the 2 mg/kg group, pre-dose phase day 14 (baseline)): 38.5 g and 35.4 g and 32.7 g and 34.3 g and 36.9 g
- Individual Body Weight, DSNG 1 ([1]; individual male DIO mouse, 2 mg/kg, dosing phase day 1, 2 mg/kg): 35.7 g and 35.0 g and 32.7 g and 32.4 g and 34.9 g
- Individual Body Weight, DSNG 2 ([1]; individual male DIO mouse, 2 mg/kg, dosing phase day 2, 2 mg/kg): 35.0 g and 35.6 g and 31.8 g (2×) and 35.2 g
- solubility [2, 25]: 1.15 µM (≈ 0.517 µg/mL)
- solubility [2, 26]: 1.15 µM (≈ 0.515 µg/mL)

Structure (SMILES): CC1=C(O)C(=O)C=C2C1=CC=C1[C@@]2(C)CC[C@@]2(C)[C@@H]3C[C@](C)(C(=O)N(C)C)CC[C@]3(C)CC[C@]12C [ERX1008]
- cumulative body weight change ([1]; 2 mg/kg oral gavage once daily for 10 days, compared with controls): statistically significant decreases
- solubility [2, 25]: 0.08 µM (≈ 0.0382 µg/mL)
- solubility [2, 26]: 0.0841 µM (≈ 0.0402 µg/mL)

Structure (SMILES): CC1=C(O)C(=O)C=C2C1=CC=C1[C@@]2(C)CC[C@@]2(C)[C@@H]3C[C@](C)(CO)CC[C@]3(C)CC[C@]12C [ERX1010]
- solubility [2, 25]: 0.64 µM (≈ 0.279 µg/mL)
- solubility [2, 26]: 0.644 µM (≈ 0.281 µg/mL)

Structure (SMILES): CC1=C(O)C(=O)C=C2C1=CC=C1[C@@]2(C)CC[C@@]2(C)[C@@H]3C[C@](C)(C(=O)N4CC(O)C4)CC[C@]3(C)CC[C@]12C [ERX1020]
- solubility [2, 25]: 0.54 µM (≈ 0.273 µg/mL)
- solubility [2, 26]: 0.54 µM (≈ 0.273 µg/mL)

Structure (SMILES): CC1=C(O)C(=O)C=C2C1=CC=C1[C@@]2(C)CC[C@@]2(C)[C@@H]3C[C@](C)(C(=O)NC(CO)CO)CC[C@]3(C)CC[C@]12C [ERX1029]
- solubility [2, 25]: 1.61 µM (≈ 0.843 µg/mL)
- solubility [2, 26]: 1.6 µM (≈ 0.841 µg/mL)

- solubility at 1 h [2, 27]: 0.63 µM (≈ 0.384 µg/mL)
- solubility at 1 h [2, 28]: 0.627 µM (≈ 0.383 µg/mL)
Structure (SMILES): CC(=O)Oc1cc2c(c(C)c1OC(C)=O)C(SC(C)C)C=C1[C@@]2(C)CC[C@@]2(C)[C@@H]3C[C@](C)(C(N)=O)CC[C@]3(C)CC[C@]12C (stereo partly drawn) [ERX1066]

Structure (SMILES): COC(=O)[C@]1(C)CC[C@]2(C)CC[C@]3(C)C4=CC=C5C(=CC(=O)C(O)=C5C)[C@]4(C)CC[C@@]3(C)[C@@H]2C1 [ERX1074]
- solubility at 1 h [2, 25]: 4.19 µM (≈ 1.95 µg/mL)
- solubility at 1 h [2, 26]: 4.19 µM (≈ 1.95 µg/mL)

- solubility at 1 h [2, 27]: 6.44 µM (≈ 3.93 µg/mL)
- solubility at 1 h [2, 28]: 6.43 µM (≈ 3.93 µg/mL)
Structure (SMILES): CC(=O)Oc1cc2c(c(C)c1OC(C)=O)C(SC(C)=O)C=C1[C@@]2(C)CC[C@@]2(C)[C@@H]3C[C@](C)(C(=O)O)CC[C@]3(C)CC[C@]12C (stereo partly drawn) [ERX1076]
